From patent publication US9580390B2, “Indazole compounds as kinase inhibitors and method of treating cancer with same” (University Health Network, priority 2011, dated 2017)

Assays:
[1] = system: colon cancer cells (HCT116); experiment: Cancer cell line growth inhibition (SRB assay); type: cell-based; conditions: Homo sapiens, HCT-116; read-out: Cancer Cell Line GI50 Range HCT116
human TTK = target: T1, human TTK (Homo sapiens, UniProt P33981); experiment: TTK inhibition assay (indirect ELISA); type: biochemical; conditions: read-out: TTK IC50 Range
T1 construct: amino terminal GST fusion of full length human TTK; purchased Invitrogen
T1 sequence (P33981 1-857): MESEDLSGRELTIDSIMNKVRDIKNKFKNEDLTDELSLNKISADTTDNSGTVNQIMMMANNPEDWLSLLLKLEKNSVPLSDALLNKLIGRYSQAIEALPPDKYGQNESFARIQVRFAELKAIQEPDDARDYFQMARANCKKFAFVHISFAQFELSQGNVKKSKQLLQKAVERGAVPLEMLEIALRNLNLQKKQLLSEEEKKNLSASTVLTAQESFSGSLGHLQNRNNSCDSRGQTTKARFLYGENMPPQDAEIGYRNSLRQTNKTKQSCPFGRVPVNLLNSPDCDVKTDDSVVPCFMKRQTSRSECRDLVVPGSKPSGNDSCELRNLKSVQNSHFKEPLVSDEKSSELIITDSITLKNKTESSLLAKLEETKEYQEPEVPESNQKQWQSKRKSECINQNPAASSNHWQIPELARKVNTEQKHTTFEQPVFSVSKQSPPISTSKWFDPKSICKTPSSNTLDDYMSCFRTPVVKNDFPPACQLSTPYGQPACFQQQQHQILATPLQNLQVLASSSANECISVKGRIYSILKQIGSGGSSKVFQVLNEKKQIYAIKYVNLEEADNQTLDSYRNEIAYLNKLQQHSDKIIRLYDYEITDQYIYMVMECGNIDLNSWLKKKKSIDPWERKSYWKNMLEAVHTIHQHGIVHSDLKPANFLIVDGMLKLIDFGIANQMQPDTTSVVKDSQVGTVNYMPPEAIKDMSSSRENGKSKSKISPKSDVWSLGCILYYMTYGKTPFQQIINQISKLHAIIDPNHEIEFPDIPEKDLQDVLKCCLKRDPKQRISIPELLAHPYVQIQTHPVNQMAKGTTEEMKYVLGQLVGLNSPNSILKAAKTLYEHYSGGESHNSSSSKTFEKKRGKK

Breast cancer cells = experiment: Cancer cell line growth inhibition (SRB assay); type: cell-based; conditions: Homo sapiens; MDA-MB-468; read-out: Cancer Cell Line GI50 Range MDA-MB-468
human PLK4 = target: T2, human PLK4 (Homo sapiens, UniProt O00444); experiment: PLK4 inhibition assay (indirect ELISA); type: biochemical; conditions: 15 μM ATP
T2 construct: amino terminal GST fusion of residues 1-391 of human PLK4; made in house; host or cells: E. coli
T2 sequence (O00444 1-391): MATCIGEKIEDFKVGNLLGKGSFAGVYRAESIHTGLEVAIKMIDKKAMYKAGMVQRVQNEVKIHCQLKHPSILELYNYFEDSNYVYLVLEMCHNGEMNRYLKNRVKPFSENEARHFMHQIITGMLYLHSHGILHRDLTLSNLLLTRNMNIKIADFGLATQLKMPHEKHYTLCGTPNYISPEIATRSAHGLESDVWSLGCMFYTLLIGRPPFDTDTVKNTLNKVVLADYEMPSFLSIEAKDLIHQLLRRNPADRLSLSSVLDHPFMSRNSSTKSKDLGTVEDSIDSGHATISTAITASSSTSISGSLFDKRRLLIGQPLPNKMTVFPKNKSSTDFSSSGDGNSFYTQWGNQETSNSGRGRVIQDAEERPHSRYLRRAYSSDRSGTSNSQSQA
Experimental: Active PLK4 was purified from an E. coli expression system as an amino terminal GST fusion of residues 1-391 of human PLK4. The protein was purified from clarified cell extracts after induction at 15° C. overnight using glutathione sepharose, gel permeation chromatography, and ion exchange (Resource Q). The resulting protein was dephosphorylated with lambda phosphatase (NEB cat# P0753), and resolved from the phosphatase using gluthione sepharose. The dephosphorylated GST-PLK4 was stored in aliquots at −80° C. until use.
PLK4 activity was measured using an indirect ELISA detection system. Dephosphorylated GST-PLK4 (4 nM) was incubated in the presence of 15 μM ATP (Sigma cat# A7699), 50 mM HEPES-[…] pH 7.4, 10 mM MgCl2, 0.01% Brij 35 (Sigma cat# 03-3170), in a 96 well microtitre plate pre-coated with MBP (Millipore cat#30-011). The reaction was allowed to proceed for 30 minutes, followed by 5 washes of the plate with Wash Buffer (50 mM TRIS-Cl pH 7.4 and 0.2% Tween 20), and incubation for 30 minutes with a 1:3000 dilution of primary antibody (Cell Signaling cat# 9381). The plate was washed 5 times with Wash Buffer, incubated for 30 minutes in the presence of secondary antibody coupled to horse radish peroxidase (BioRad cat# 1721019, 1:3000 concentration), washed an additional 5 times with Wash Buffer, and incubated in the presence of TMB substrate (Sigma cat# T0440). The colourimetric reaction was allowed to continue for 5 minutes, followed by addition of stop solution (0.5 N sulphuric acid), and quantified by detection at 450 nm with either a monochromatic or filter based plate reader (Molecular Devices M5 or Beckman DTX880, respectively).
Compound inhibition was determined at either a fixed concentration (10 μM) or at a variable inhibitor concentration (typically 50 μM to 0.1 μM in a 10 point dose response titration). Compounds were pre-incubated in the presence of enzyme for 15 minutes prior to addition of ATP and the activity remaining quantified using the above described activity assay. The % Inhibition of a compound was determined using the following formula: % Inhibition=100×(1−(experimental value−background value)/(high activity control−background value)). The IC50 value was determined using a non-linear 4 point logistic curve fit (XLfit4, IDBS) with the formula: (A+(B/(1+((x/C)^D)))), where A=background value, B=range, C=inflection point, D=curve fit parameter.

[2] = system: ovarian cancer cells (PA-1); experiment: Cancer cell line growth inhibition (SRB assay); type: cell-based; conditions: Homo sapiens, PA-1; read-out: Cancer Cell Line GI50 Range PA-1

Row | SMILES | GI50 [1] | GI50 [2] | IC50 (human TTK) | GI50 (Breast cancer cells) | IC50 (human PLK4)
1 | CN1[C@@H]2CC[C@H]1C[C@@H](Oc1ccc(-c3n[nH]c4ccc(C(=O)NCC5(c6cccs6)CCOCC5)cc34)cc1)C2 [Example A445, 3-(4-(((1R,3R,5S)-8-methyl-8-azabicyclo[3.2.1]octan-3-yl)oxy)phenyl)-N-((4-(thiophen-2-yl)tetrahydro-2H-pyran-4-yl)methyl)-1H-indazole-5-carboxamide] | < 100 nM | < 100 nM | < 100 nM | 100 to 500 nM | < 50 nM
2 | O=C(NCC1(c2ccccc2)CCOCC1)c1ccc2[nH]nc(-c3ccc(N4[C@@H]5COC[C@H]4C[C@@H](O)C5)cc3)c2c1 [Example A503, 3-(4-((1R,5S,7S)-7-hydroxy-3-oxa-9-azabicyclo[3.3.1]nonan-9-yl)phenyl)-N-((4-phenyltetrahydro-2H-pyran-4-yl)methyl)-1H-indazole-5-carboxamide] | < 100 nM | < 100 nM | < 100 nM | 100 to 500 nM | < 50 nM
3 | CN1CCC2(CCc3cc(-c4n[nH]c5ccc(C(=O)N[C@H](c6ccccn6)C6CCCC6)cc45)ccc3O2)CC1 [Example A253, (S)-N-(cyclopentyl(pyridin-2-yl)methyl)-3-(1′-methylspiro[chroman-2,4′-piperidin]-6-yl)-1H-indazole-5-carboxamide] | < 100 nM | < 100 nM | < 100 nM | 100 to 500 nM | < 50 nM
4 | CC(C)CC(NC(=O)c1ccc2[nH]nc(-c3ccc(OC4CC5CCC(C4)N5C4COC4)cc3)c2c1)c1ccccn1 [Example A373, N-(3-methyl-1-(pyridin-2-yl)butyl)-3-(4-(((1R,3R,5S)-8-(oxetan-3-yl)-8-azabicyclo[3.2.1]octan-3-yl)oxy)phenyl)-1H-indazole-5-carboxamide] | 100 to 500 nM | 100 to 500 nM | < 100 nM | 100 to 500 nM | < 50 nM
5 | CC(C)C[C@H](NC(=O)c1ccc2[nH]nc(-c3ccc(N4C5COCC4CC(O)C5)cc3)c2c1)c1ccccc1Cl (stereo partly drawn) [Example A424, N-((S)-1-(2-chlorophenyl)-3-methylbutyl)-3-(4-((1R,5S,7R)-7-hydroxy-3-oxa-9-azabicyclo[3.3.1]nonan-9-yl)phenyl)-1H-indazole-5-carboxamide] | < 100 nM | < 100 nM | < 100 nM | < 100 nM | < 50 nM
6 | CN1[C@@H]2CCC[C@H]1C[C@@H](Oc1ccc(-c3n[nH]c4ccc(C(=O)NC(c5ccccc5)C5CC5)cc34)cc1)C2 (stereo partly drawn) [Example A390, N-(cyclopropyl (phenyl)methyl)-3-(4-(((1R,3R,5S)-9-methyl-9-azabicyclo[3.3.1]nonan-3-yl)oxy)phenyl)-1 H-indazole-5-carboxamide] | < 100 nM | < 100 nM | < 100 nM | 100 to 500 nM | < 50 nM
7 | O=C(N[C@H](c1ccccc1)C1CC1)c1ccc2[nH]nc(-c3ccc(OC4CC5CCC(C4)N5C4COC4)cc3)c2c1 (stereo partly drawn) [Example A336, N-((S)-cyclopropyl(phenyl)methyl)-3-(4-(((1R,3R,5S)-8-(oxetan-3-yl)-8-azabicyclo[3.2.1]octan-3-yl)oxy)phenyl)-1H-indazole-5-carboxamide] | 100 to 500 nM | 100 to 500 nM | < 100 nM |  | < 50 nM
8 | CC(C)(C)C[C@H](NC(=O)c1ccc2[nH]nc(-c3ccc(N4C5COCC4CC(O)C5)cc3)c2c1)c1ccccc1 (stereo partly drawn) [Example A426, N-((S)-3,3-dimethyl-1-phenylbutyl)-3-(4-((1R,5S,7R)-7-hydroxy-3-oxa-9-azabicyclo[3.3.1]nonan-9-yl)phenyl)-1H-indazole-5-carboxamide] |  |  | < 100 nM |  | < 50 nM

Further lines, with some results ahead:

Row | GI50 [1] | GI50 [2] | SMILES | IC50 (human TTK) | GI50 (Breast cancer cells) | IC50 (human PLK4)
9 | > 500 nM | > 500 nM | O=C(NCC1(c2ccccc2)COC1)c1ccc2[nH]nc(-c3ccc(OC4CCN(C5COC5)CC4)cc3)c2c1 [Example A487, 3-(4-((1-(oxetan-3-yl)piperidin-4-yl)oxy)phenyl)-N-((3-phenyloxetan-3-yl)methyl)-1H-indazole-5-carboxamide] | < 100 nM | > 500 nM | < 50 nM
10 | 100 to 500 nM | < 100 nM | O=C(N[C@@H](c1ccsc1)C1CCCC1)c1ccc2[nH]nc(-c3ccc(OC4CCN(CCO)CC4)cc3)c2c1 [Example A219, (R)-N-(cyclopentyl(thiophen-3-yl)methyl)-3-(4-((1-(2-hydroxyethyl)piperidin-4-yl)oxy)phenyl)-1H-indazole-5-carboxamide] | < 100 nM | 100 to 500 nM | < 50 nM
11 | < 100 nM | < 100 nM | CC(C)(C)C[C@H](NC(=O)c1ccc2[nH]nc(-c3ccc(N4CCN(C5COC5)CC4)cc3)c2c1)c1ccccc1 [Example A372, (S)-N-(3,3-dimethyl-1-phenylbutyl)-3-(4-(4-(oxctan-3-yl)piperazin-1-yl)phenyl)-1H-indazole-5-carboxamide] | < 100 nM | 100 to 500 nM | < 50 nM
12 | < 100 nM | < 100 nM | CC(C)[C@H](NC(=O)c1ccc2[nH]nc(-c3ccc4c(c3)CCC3(CCN(C)CC3)O4)c2c1)c1ccccc1Cl [Example A250, (S)-N-(1-(2-chlorophenyl)-2-methylpropyl)-3-(1′-methylspiro[chroman-2,4′-piperidin]-6-yl)-1H-indazole-5-carboxamide] | < 100 nM | 100 to 500 nM | < 50 nM
13 | < 100 nM | < 100 nM | CC(C)[C@H](NC(=O)c1ccc2[nH]nc(-c3ccc(OC4CN(C5COC5)C4)cc3)c2c1)c1ccccc1Cl [Example A296, (S)-N-(1-(2-chlorophenyl)-2-methylpropyl)-3-(4-((1-(oxetan-3-yl)azetidin-3-yl)oxy)phenyl)-1H-indazole-5-carboxamide] | < 100 nM |  | < 50 nM
14 | < 100 nM | < 100 nM | O=C(NC(c1ccsc1)C1CCC1)c1ccc2[nH]nc(-c3ccc(OC4CCN(C5COC5)CC4)cc3)c2c1 (stereo not shown) [Example A331, N-(cyclobutyl(thiophen-3-yl)methyl)-3-(4-((1-(oxetan-3-yl)piperidin-4-yl)oxy)phenyl)-1H-indazole-5-carboxamide] | < 100 nM |  | < 50 nM
